Data on ten compounds can be found in patent EP4653451A1, “POLYPEPTIDE COMPOUND AND USE THEREOF” (Chengdu New Radiomedicine Technology Co., Ltd., priority 2023, dated 2024).

Series [1] can be described thus: Pharmacokinetics after tail vein injection. The settings on record: iv, 0.2 mg/kg. It counts as in vivo, CD-1 mice. On the procedure:
Male CD-1 mice weighing 30-35 g were selected, and a test compound was injected into the tail vein at 0.2 mg/kg. Plasma samples were collected at 5, 15, 30, and 60 min and 2, 4, 8, and 24 h after administration and processed accordingly. The drug content was analyzed by LC-MS/MS.
Among them, compounds 20, 21 and 22 were compounds formed by chelating nonradioactive in with compounds 11, 14 and 16, respectively.

For series [2], the target named is T1, human recombinant DPP4 protein (Homo sapiens, UniProt P27487).
T1 construct: purchased Acrobiosystems DP4-H5211
Put plainly: Inhibitory activity against DPP4 protease activity (H-Gly-Pro-AMC fluorescence). Conditions: 125 pM DPP4 working solution, 90 min at room temperature. The class given is biochemical. As to the method: The human recombinant DPP4 protein (Acrobiosystems, DP4-H5211) was formulated into a 125 pM working solution with an assay buffer (20 mM Tris-HCl, 100 mM NaCl), and the DPP4 substrate (H-Gly-Pro-AMC.HBr (LEONBIO, 115035-46-6)) was diluted to a 250 µM DPP4 substrate working solution with the assay buffer. 40 µl of DPP4 working solution and 20 µl of compounds at different concentrations (4-fold dilution) were taken, then 40 µl of DPP4 substrate working solution was added, and the mixture was uniformly mixed on a shaker at room temperature for 1 min. The uniformly mixed mixture was reacted at room temperature in the dark for 90 min. Reading was made by microplate reader at excitation and emission wavelengths of 380 nm and 460 nm. The original data was saved, and the IC50 value of the compound was obtained by analyzing the data with Graphpad PRISM.

The target in series [3] is T2, human recombinant FAP protein (Homo sapiens, UniProt Q12884).
T2 construct: purchased Acrobiosystems FAP-H82Q6
T2 sequence (Q12884 1-760): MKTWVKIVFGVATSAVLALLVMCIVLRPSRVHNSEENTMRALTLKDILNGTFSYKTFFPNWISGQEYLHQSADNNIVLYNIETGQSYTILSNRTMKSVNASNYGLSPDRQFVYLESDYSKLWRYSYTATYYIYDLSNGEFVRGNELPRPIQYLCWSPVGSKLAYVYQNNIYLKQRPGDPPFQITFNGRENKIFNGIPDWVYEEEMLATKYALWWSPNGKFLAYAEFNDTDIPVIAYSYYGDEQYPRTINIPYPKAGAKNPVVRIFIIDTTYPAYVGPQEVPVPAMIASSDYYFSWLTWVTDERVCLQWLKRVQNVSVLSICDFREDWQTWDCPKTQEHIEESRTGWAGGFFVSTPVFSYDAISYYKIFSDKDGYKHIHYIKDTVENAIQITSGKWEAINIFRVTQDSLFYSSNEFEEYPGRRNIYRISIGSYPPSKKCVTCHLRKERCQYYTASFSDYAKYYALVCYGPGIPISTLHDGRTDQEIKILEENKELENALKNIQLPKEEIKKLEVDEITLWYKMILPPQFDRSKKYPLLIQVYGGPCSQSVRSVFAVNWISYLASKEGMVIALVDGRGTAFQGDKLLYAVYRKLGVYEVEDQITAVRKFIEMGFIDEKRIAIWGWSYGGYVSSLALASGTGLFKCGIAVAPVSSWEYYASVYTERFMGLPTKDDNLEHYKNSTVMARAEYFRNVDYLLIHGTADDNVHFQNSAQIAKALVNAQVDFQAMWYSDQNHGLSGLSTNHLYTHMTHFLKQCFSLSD
Description: Inhibitory activity against FAP protease activity (Z-Gly-Pro-AMC fluorescence). The settings on record: 125 pM FAP working solution, 90 min at room temperature; read-out: FAP IC50. It counts as biochemical. On the procedure: The human recombinant FAP protein (Acrobiosystems, FAP-H82Q6) was diluted to a 125 pM FAP working solution with an assay buffer (50 mM Tris-HCl, 1 M NaCl, 1 mg/mL BSA, pH 7.5), and the FAP substrate (Z-Gly-Pro-AMC (LEONBIO, 68542-93-8)) was diluted to a 150 µM substrate working solution with the assay buffer. 40 µl of FAP working solution and 20 µl of compounds at different concentrations (4-fold dilution) were taken, then 40 µl of substrate working solution was added, and the mixture was uniformly mixed on a shaker at room temperature for 1 min. The uniformly mixed mixture was reacted at room temperature in the dark for 90 min. The fluorescence value Ex = 380 nm/Em = 460 nm was read by using a microplate reader. The original data was saved, and the IC50 value of the compound was obtained by using the original data or the Inhibition% via calculation and analyzing the data with Graphpad PRISM.

For series [4], the system named is HEK293-FAP cells. Put plainly: Distribution in tissues of HEK293-FAP tumor-bearing mice (gamma counter). The class given is in vivo, SCID mice. Conditions: 100 µCi, SCID mice with HEK293-FAP tumor. As to the method: Male SCID mice (6-8 weeks old) were subcutaneously inoculated with 5 × 10^6 HEK293-FAP cells (FAP was highly expressed in HEK293 cells). 10 days later, 30 mice with tumor size of 200-300 mm^3 were randomly divided into 3 groups. Each mouse in the 3 groups was administered with compound ^177Lu-3BP-3554, compound 29 and compound 30 with a radiation dose of 100 µCi, respectively. Blood, kidney and tumor tissues were collected at time points of 4 h, 8 h, 24 h, 72 h and 168 h, and all blood samples and tissue samples were measured for radioactive counts by gamma counter.

Where two headings read alike, the source gives them in different places. Numbered stars: 1 amine (or outer) side, 2 acyl side, 3 side chain; on linkers, the order of the positions; unused ones are H or OH. Bridge positions count the residues as written; N and C are the ends. Square brackets hold non-standard residues; d marks the D form. Peptide text beside a SMILES is read from it. * marks the point of attachment. X1 = O=C(O)CN1CCN(CC(=O)O)CCN(CC(=O)NCCSCc2cc(CSC[C@@H](CNC(=O)C3CCCC3)N[*:2])cc(C[*:1])c2)CCN(CC(=O)O)CC1; TBMB(SCH2CH2NH-DOTA) = O=C(O)CN1CCN(CC(=O)O)CCN(CC(=O)NCCSCc2cc(C[*:1])cc(C[*:2])c2)CCN(CC(=O)O)CC1; 1Nal = N[C@@H](Cc1cccc2ccccc12)C(=O)O; mXylylene = c1cc(C[*:1])cc(C[*:2])c1; NH(4-picolyl) = c1cc(CN*)ccn1; β3hC = N[C@@H](CS)CC(=O)O; Nle = CCCC[C@H](N)C(=O)O; Hexanoyl = CCCCCC(=O)*; NHPh = c1ccc(N*)cc1; X3 = C1C2CC1(N*)C2; X2 = C1CCC(CN*)C1

Broadly, the Cmax is the peak of the concentration-time curve. Broadly, the IC50 is the concentration that inhibits the measured activity by half.

T1 sequence (P27487 whole entry): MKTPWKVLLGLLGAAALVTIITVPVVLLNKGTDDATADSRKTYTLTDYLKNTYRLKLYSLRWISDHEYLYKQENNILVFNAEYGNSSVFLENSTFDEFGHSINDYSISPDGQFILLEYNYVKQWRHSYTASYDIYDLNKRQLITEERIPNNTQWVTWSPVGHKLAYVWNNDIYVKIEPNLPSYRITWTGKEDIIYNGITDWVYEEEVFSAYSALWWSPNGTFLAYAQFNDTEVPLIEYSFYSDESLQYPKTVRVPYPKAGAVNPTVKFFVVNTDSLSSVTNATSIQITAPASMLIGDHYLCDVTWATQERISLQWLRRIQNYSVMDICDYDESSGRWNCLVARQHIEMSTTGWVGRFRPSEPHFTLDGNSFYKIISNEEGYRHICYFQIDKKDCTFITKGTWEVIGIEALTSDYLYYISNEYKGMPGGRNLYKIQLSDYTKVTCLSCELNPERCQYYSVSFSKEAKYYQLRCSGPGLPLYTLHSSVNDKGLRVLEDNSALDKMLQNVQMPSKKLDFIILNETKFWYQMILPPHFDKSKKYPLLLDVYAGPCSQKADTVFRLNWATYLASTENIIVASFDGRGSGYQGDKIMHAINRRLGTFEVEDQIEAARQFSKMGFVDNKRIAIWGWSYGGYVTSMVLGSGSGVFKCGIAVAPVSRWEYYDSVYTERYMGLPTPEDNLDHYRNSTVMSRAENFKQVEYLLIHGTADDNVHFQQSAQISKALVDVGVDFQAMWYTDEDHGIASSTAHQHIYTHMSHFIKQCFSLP

`CCCCCC(=O)N[C@H]1CSCc2cc(CSCCNC(=O)CN3CCN(CC(=O)O)CCN(CC(=O)O)CCN(CC(=O)O)CC3)cc(c2)CSC[C@@H](C(=O)O)NC(=O)[C@H](Cc2ccccc2)NC(=O)[C@H](CCC(N)=O)NC(=O)[C@H]([C@@H](C)O)NC(=O)[C@@H]2CCCN2C(=O)[C@@H]2CCCN2C1=O` [Compound 3BP-3623, reference compound]: in series [1] (mouse, plasma, male CD-1 mice, tail vein, read-out: AUC0-t), the AUC(0-t) worked out at 195 ng·h/mL. Besides, the clearance in series [1] (mouse, plasma, male CD-1 mice, tail vein, read-out: Cl (converted)) was 17 mL/min/kg. The Cmax in series [1] (mouse, plasma, male CD-1 mice, tail vein, read-out: Cmax) amounted to 594 ng/mL. In addition, in series [1] (mouse, plasma, male CD-1 mice, tail vein, read-out: T1/2 (converted)), the half-life is 0.37 h. Also, the Vd in series [1] (mouse, plasma, male CD-1 mice, tail vein, read-out: Vss) amounted to 0.24 L/kg.

In series [1] (male, CD-1, mouse, in vivo), `CCCCCC(=O)N[C@H]1CSCc2cc(CSCCNC(=O)CN3CCN(CC(=O)O)CCN(CC(=O)O)CCN(CC(=O)O)CC3)cc(c2)CSC[C@@H](CC(=O)O)NC(=O)[C@H](Cc2cccc3ccccc23)NC(=O)[C@H](CCC(N)=O)NC(=O)[C@H]([C@@H](C)O)NC(=O)[C@@H]2CCCN2C(=O)[C@@H]2CCCN2C1=O` [Compound 20] (Hexanoyl-CPPTQ[1Nal][β3hC]-OH; linker 1-7 via TBMB(SCH2CH2NH-DOTA)) gave an AUC(0-t) of 308 ng·h/mL, a Cmax of 772 ng/mL, a Vd of 0.52 L/kg and a clearance of 10.2 mL/min/kg. The same compound showed a half-life in series [1] (male, CD-1, mouse, in vivo) of 1.63 h.

In series [1] (male, CD-1, mouse, in vivo), `CCCCCC(=O)N[C@H]1CSCc2cc(CSCCNC(=O)CN3CCN(CC(=O)O)CCN(CC(=O)O)CCN(CC(=O)O)CC3)cc(c2)CSC[C@@H](CNC(=O)C2CCCC2)NC(=O)[C@H](Cc2ccccc2)NC(=O)[C@H](CCC(N)=O)NC(=O)[C@H]([C@@H](C)O)NC(=O)[C@@H]2CCCN2C(=O)[C@@H]2CCCN2C1=O` [Compound 21] (Hexanoyl-CPPTQF; linker 1-C via X1) gave an AUC(0-t) of 634 ng·h/mL, a Cmax of 1010 ng/mL, a Vd of 0.22 L/kg and a clearance of 5.17 mL/min/kg. The half-life in series [1] (male, CD-1, mouse, in vivo) is 1.26 h.

Turning to `CCCCCC(=O)N[C@H]1CSCc2cccc(c2F)CSC[C@@H](CNC(=O)C[C@@H](C)NC(=O)[C@H]2CC[C@H](CNC(=O)CN3CCN(CC(=O)O)CCN(CC(=O)O)CCN(CC(=O)O)CC3)CC2)NC(=O)[C@H](Cc2ccccc2)NC(=O)[C@H](CCC(N)=O)NC(=O)[C@H]([C@@H](C)O)NC(=O)[C@@H]2CCCN2C(=O)[C@@H]2CCCN2C1=O` [Compound 22], in series [1] (male, CD-1, mouse, in vivo), the AUC(0-t) is 740 ng·h/mL, the peak level (Cmax) was 1120 ng/mL, the Vd is 1.18 L/kg and the clearance was 4.33 mL/min/kg. In series [1] (male, CD-1, mouse, in vivo), this compound gave a half-life of 7.93 h.

Consider `CCCCCC(=O)N[C@H]1CSCc2cccc(c2)CSC[C@@H](CC(=O)NCC2CCCC2)NC(=O)[C@H](Cc2cccc3ccccc23)NC(=O)[C@H](CCC(N)=O)NC(=O)[C@H]([C@@H](C)O)NC(=O)[C@@H]2CCCN2C(=O)[C@@H]2CCCN2C1=O` [Compound 35] (Hexanoyl-CPPTQ[1Nal][β3hC]-X2; linker 1-7 via mXylylene), for which the IC50 was above 10000 nM in series [2] and 6.62 nM in series [3].

Regarding `CCCCCC(=O)N[C@H]1CSCc2cccc(c2)CSC[C@@H](CC(=O)Nc2ccccc2)NC(=O)[C@H](Cc2cccc3ccccc23)NC(=O)[C@H](CCC(N)=O)NC(=O)[C@H]([C@@H](C)O)NC(=O)[C@@H]2CCCN2C(=O)[C@@H]2CCCN2C1=O` [Compound 36] (Hexanoyl-CPPTQ[1Nal][β3hC]-NHPh; linker 1-7 via mXylylene), the IC50 in series [2] is above 10000 nM; in series [3], 4.18 nM.

Regarding `CCCCCC(=O)N[C@H]1CSCc2cccc(c2)CSC[C@@H](CC(=O)NCc2ccncc2)NC(=O)[C@H](Cc2cccc3ccccc23)NC(=O)[C@H](CCC(N)=O)NC(=O)[C@H]([C@@H](C)O)NC(=O)[C@@H]2CCCN2C(=O)[C@@H]2CCCN2C1=O` [Compound 37] (Hexanoyl-CPPTQ[1Nal][β3hC]-{NH(4-picolyl)}; linker 1-7 via mXylylene), the half-maximal inhibitory concentration (IC50) in series [2] is above 10000 nM; in series [3] it was 4.67 nM.

For the compound `CCCCCC(=O)N[C@H]1CSCc2cccc(c2)CSC[C@@H](CC(=O)NC23CC(C2)C3)NC(=O)[C@H](Cc2cccc3ccccc23)NC(=O)[C@H](CCC(N)=O)NC(=O)[C@H]([C@@H](C)O)NC(=O)[C@@H]2CCCN2C(=O)[C@@H]2CCCN2C1=O` [Compound 38] (Hexanoyl-CPPTQ[1Nal][β3hC]-X3; linker 1-7 via mXylylene), the IC50 in series [2] was above 10000 nM; in series [3], 4.12 nM.

For `CCCC[C@H](N)C(=O)N[C@H]1CSCc2cccc(c2)CSC[C@@H](CC(=O)O)NC(=O)[C@H](Cc2cccc3ccccc23)NC(=O)[C@H](CCC(N)=O)NC(=O)[C@H]([C@@H](C)O)NC(=O)[C@@H]2CCCN2C(=O)[C@@H]2CCCN2C1=O` [Compound 39] (H-[Nle]CPPTQ[1Nal][β3hC]-OH; linker 2-8 via mXylylene), the values for the IC50 in series [2] and in series [3] were above 10000 nM and 5.31 nM, respectively.

For `CCCCCC(=O)N[C@H]1CSCc2cc(CSCCNC(=O)CN3CCN(CC(=O)O)CCN(CC(=O)O)CCN(CC(=O)O)CC3)cc(c2)CSC[C@@H](C(=O)O)NC(=O)[C@H](Cc2ccccc2)NC(=O)[C@H](CCC(N)=O)NC(=O)[C@H]([C@@H](C)O)NC(=O)[C@@H]2CCCN2C(=O)[C@@H]2CCCN2C1=O` [^177Lu-3BP-3554, metal not drawn, reference compound], the Blood in series [4] (4 h) came out at 0.07 ID %/g; in series [4] (8 h) it was 0.02 ID %/g; in series [4] (24 h) it was 0.01 ID %/g; in series [4] (72 h), 0.0038 ID %/g; in series [4] (168 h), 0.0091 ID %/g. The Kidney in series [4] (4 h) came out at 6.65 ID %/g; in series [4] (8 h), 6.37 ID %/g; in series [4] (24 h) it was 2.92 ID %/g; in series [4] (72 h), 0.86 ID %/g; in series [4] (168 h), 0.16 ID %/g. Also, the Tumor in series [4] (4 h) is 21.21 ID %/g; in series [4] (8 h), 18.42 ID %/g; in series [4] (24 h), 10.37 ID %/g; in series [4] (72 h), 5.05 ID %/g; in series [4] (168 h) it was 1.52 ID %/g.
